According to publication PMC10707934, “Design and Synthesis of Novel α-Methylchalcone Derivatives, Anti-Cervical Cancer Activity, and Reversal of Drug Resistance in HeLa/DDP Cells” (Molecules, 2023):

How the values were obtained:
Assay type in all cases: cell-based, human
Bcl-2 [1] = assay: Western blot, Bcl-2 expression in HeLa cells; conditions: 24 h, 5 and 10 μM
Method: (§1) HeLa cells were cultured in 60 mm Petri dishes at a density of 1.0 × 10^6 cells per dish and treated with 0.1% DMSO (vehicle), positive control chalcone (20 μM), and different concentrations of compound 3k (2.5, 5, and 10 μM), respectively. Following a 24 and 48 h incubation period, the cells were harvested via centrifugation and subsequently washed twice with PBS that had been chilled to 0 °C. Next, the cells were homogenized using RIPA lysis buffer (Solarbio, Beijing, China) and supplemented with 1% PMSF (MP Biomedicals, 0754-25G, CAS:329-98-6, Santa Ana, CA, USA) and 1% mixed phosphatase inhibitor (Solarbio, Beijing, China). […]
(§2) Subsequently, the protein concentrations were determined utilizing a BCA Protein Assay Kit (Solarbio, China). An equivalent quantity of the proteins (12 μg) was fractionated via 8–12% sodium dodecyl sulfate–polyacrylamide gel electrophoresis (SDS-PAGE) and transferred onto nitrocellulose membranes (Amersham Biosciences, Amersham, UK). […] The blots were subsequently visualized using enhanced chemiluminescence (Biosharp, Shanghai, China) and detected utilizing a PE 0723 imager (ProteinSimple, Silicon Valley, CA, USA). Each experiment was conducted in triplicate at minimum and analyzed employing Image J software (V1.8.0.112). β-actin(ab198991) rabbit mAb, goat anti-rabbit IgG (H + L) HRP—#S0001 (Affinity). […]

P-gp = assay: Western blot, P-gp expression in HeLa/DDP cells; conditions: 48 h, 0.25, 0.5, or 1 μM
[2] = system: α-tubulin, β-tubulin in HeLa cells; assay: Immunofluorescence assay of microtubules, HeLa; conditions: 24 h, 3k 1, 2, and 4 μM, colchicine and paclitaxel 2.0 μM
Method: The cells were then fixed by adding 400 μL of 4% paraformaldehyde to each well and incubating for 30 min. 0.1% Triton was added at a volume of 400 μL per well and allowed to incubate for 10 min. Following this, goat serum (10%) was added at 400 μL per well and incubated for 40 min. Primary antibodies (α-tubulin, β-tubulin) were then incubated overnight at a temperature of 4 °C. Subsequently, secondary antibodies (α-mouse, β-rabbit) were incubated for 1.5 h. DAPI staining was performed at 400 μL per well for 5 min, followed by a wash with PBS. Cell climbing tablets were removed and inverted onto slides with sealer. Photographs were captured using a fluorescent inverted microscope.

[3] = system: α-/β-tubulins in HeLa/DDP cells; assay: Western blot of polymerized and dissociated α-/β-tubulins, HeLa/DDP; conditions: versus control
Method: (§3) HeLa cells were cultured in 60 mm Petri dishes at a density of 1.0 × 10^6 cells per dish and treated with 0.1% DMSO (vehicle), positive control chalcone (20 μM), and different concentrations of compound 3k (2.5, 5, and 10 μM), respectively. Following a 24 and 48 h incubation period, the cells were harvested via centrifugation and subsequently washed twice with PBS that had been chilled to 0 °C. Next, the cells were homogenized using RIPA lysis buffer (Solarbio, Beijing, China) and supplemented with 1% PMSF (MP Biomedicals, 0754-25G, CAS:329-98-6, Santa Ana, CA, USA) and 1% mixed phosphatase inhibitor (Solarbio, Beijing, China). The resulting lysates were then incubated on ice for 30 min, intermittently vortexed every 5 min, and subsequently centrifuged at 12,000 rpm for 20 min to collect the supernatants.
(§4) Subsequently, the protein concentrations were determined utilizing a BCA Protein Assay Kit (Solarbio, China). An equivalent quantity of the proteins (12 μg) was fractionated via 8–12% sodium dodecyl sulfate–polyacrylamide gel electrophoresis (SDS-PAGE) and transferred onto nitrocellulose membranes (Amersham Biosciences, Amersham, UK). Following this, the membranes were obstructed with 5% nonfat dried milk in TBS containing 1% Tween-20 for a duration of 2 h at ambient temperature and were subjected to overnight incubation with specific primary antibodies (CST, Boston, MA, USA) at 4 °C. Following three washes in TBST, the membranes were subjected to incubation with the suitable HRP-conjugated secondary antibodies at ambient temperature for a duration of 2 h. The blots were subsequently visualized using enhanced chemiluminescence (Biosharp, Shanghai, China) and detected utilizing a PE 0723 imager (ProteinSimple, Silicon Valley, CA, USA). Each experiment was conducted in triplicate at minimum and analyzed employing Image J software (V1.8.0.112). β-actin(ab198991) rabbit mAb, goat anti-rabbit IgG (H + L) HRP—#S0001 (Affinity). Bax (ab289364), Bcl-2 (ab218123), MDR1/ABCB1 (E1Y7B) rabbit mAb #13342 (CST).
(§5) Polymerized and free microtubule proteins were extracted using the methods described in references, respectively. Following drug intervention, the cells were subjected to two washes with preheated microtubule protein buffer MTSB at 37 °C. Subsequently, 70 μL of MTSB was added, and the cells were lysed for 10 min at 37 °C in a constant temperature chamber shielded from light. The cells were then scraped with a spatula and centrifuged at 14,000 r/min for 10 min at room temperature. The resulting supernatant, which represented the free state microtubule protein suspension, was subsequently removed. The remaining precipitate was treated with RIPA lysis solution, followed by lysis on ice for a duration of 30 min. Subsequently, centrifugation was performed at a temperature of 4 °C and a speed of 12,000 revolutions per minute for a duration of 20 min. The resulting supernatant was collected as a suspension of polymerized microtubule protein. The Western blotting procedure was the same as in Section 3.3.4. α-Tubulin (DM1A) Mouse mAb#3873 (CST), β-Tubulin (D2N5G) Rabbit mAb #15115 (CST), CoraLite488-conjugated Goat Anti-Mouse lgG(H+L) (Proteintech); CoraLite488-conjugated Goat Anti-Rabbit lgG(H+L) (Proteintech); β-actin(ab198991) rabbit mAb, Goat Anti-Mouse IgG H&L (HRP) (ab6789); Goat anti-Rabbit IgG (H+L) HRP—#S0001 (Affinity).

[4] = system: α-/β-tubulins in HeLa cells; assay: Western blot of polymerized and dissociated α-/β-tubulins, HeLa; conditions: 24 h, versus control
Method: as §3, §4, §5

HeLa cells = assay: Transwell migration assay, HeLa; conditions: 24 h, control 1176
Method: HeLa (5 × 10^4 cells) was suspended in 200 μL of FBS-free medium. The top chamber contained the vehicle and various concentrations of compound 3k (2.5, 5, and 10 μM), cisplatin (20 μM) and chalcone (20 μM). The lower chamber was filled with 600 μL of medium containing 10% FBS. After incubating at 37 °C for 24 h, the cells on the top side of the Transwell membrane were removed with a cotton tip. Cells were fixed and stained with 4% paraformaldehyde (LEAGENE BIOTECHNOLOGY, Cat:DF0135, Lot:0823A23, Zhongguancun, Haidian District, Beijing, China) and 0.1% crystal violet solutions (Leagene Biotechnology, Cat:DZ0055, Lot:0508A23, Zhongguancun, Haidian District, Beijing, China) for 30 min to fix cells trapped on the perforated side of the membrane.

Bcl-2 [5] = assay: Western blot, Bcl-2 expression in HeLa/DDP cells; conditions: 24 h, 2.5, 5, and 10 μM
Method: as §1, §2

Structure (SMILES): COc1ccc(/C=C(\C)C(=O)c2ccc(Cl)c(Cl)c2)cc1OC [Compound 3k, (E)-1-(3,4-Dichlorophenyl)-3-(3,4-dimethoxyphenyl)-2-methylprop-2-en-1-one]
- Bcl-2 expression versus control group (Bcl-2 [1]): downregulation
- expression of P-gp (P-gp): remained unchanged
- microtubule immunofluorescence (α green, β red) [2]: green and red fluorescence of the encapsulated cells weakened
- expression of polymerized β microtubulin ([3]; 24 h, 1, 2, and 4 μM): significant reduction
- expression of polymerized α-microtubulin ([3]; 24 h, 2 and 4 μM): significant decrease
- expression of dissociated state α and β microtubule proteins ([3]; 24 h, 3k 4 μM, colchicine and paclitaxel 2.0 μM): significant increase
- expression of dissociated state α and β microtubule proteins ([4]; 3k 4 μM, colchicine 2 μM, paclitaxel 2.0 μM): significant increase
- expression of α and β microtubule proteins in the polymerized state ([4]; 3k 2 and 4 μM, colchicine and paclitaxel 2.0 μM): significant decrease
- number of migrated cells (HeLa cells; 2.5 μM): 518
- number of migrated cells (HeLa cells; 5 μM): 388
- number of migrated cells (HeLa cells; 10 μM): 166
- Bcl-2 expression versus control group (Bcl-2 [5]): significantly downregulate
